Values after ≈ are worked out from the molar mass of the structure shown.
Tests used:
XW055 = assay: Furfural tolerance in tube cultures; format: cell-based; conditions: Escherichia coli, strain XW055, AM1 medium, 50 g/L xylose, 48 h, read-out: minimal inhibitory concentration of furfural
Description: (§1) Furfural toxicity was measured in tube cultures (13 mm by 100 mm) as previously described for ethanol strains (17, 22). For succinate strains, tubes contained 4 ml of AM1 medium with 50 g/L xylose, 50 mM KHCO3, and 100 mM MOPS as a buffer. Tubes were inoculated with starting cell density of 44 mg/L. Cell mass was measured at 550 nm after incubation for 48 h (37° C.).

XW120 = assay: Furfural tolerance in tube cultures; format: cell-based; conditions: Escherichia coli, 48 h, read-out: minimal inhibitory concentration of furfural
Description: as §1

LY180 = assay: Batch ethanol fermentation in AM1 medium with furfural; format: cell-based, Escherichia coli; conditions: 15 mM furfural, AM1 mineral salts medium, 100 g/L xylose
Description: (§2) FIGS. 4A-C. Comparison of batch fermentations for the parent LY180 and the plasmid-free, furfural-resistant strain XW129. […] For A (cell mass) and B (ethanol and furfural), fermentations were conducted in mineral salt medium AM1 (100 g/L xylose and 15 mM furfural). Control fermentations without furfural were also included. Fermentations (C) were also conducted using hemicellulose hydrolysate containing 36 g/L total sugar, supplemented with AM1 nutrients and 0.5 mM sodium metabisulfite. Data represent averages of at least 2 experiments with standard deviations.
(§3) Ethanol fermentations with xylose were carried out as previously described (17, 22), with and without furfural. For succinate production from xylose, seed pre-cultures of strains were grown in sealed culture tubes containing AM1 medium (20 g/L xylose, 50 mM KHCO3 and 100 mM MOPS). After incubation for 16 h, pre-inocula were diluted into 500-ml fermentation vessels containing 300 ml AM1 media (100 g/L xylose, 1 mM betaine and 100 mM KHCO3) at an initial density of 6.6 mg dry cell weight. After 24 h growth, these seed cultures were used to provide starting inocula for batch fermentations (AM1 medium, 100 g/L xylose and 100 mM KHCO3). Fermentations were maintained at pH 7.0 by automatic addition of base containing additional CO2 (2.4 M potassium carbonate in 1.2 M potassium hydroxide) as previously described (27). Quantitative analyses of sugars, ethanol, furfural, and succinate were as previously described (17, 27, 38).

XW129 = assay: as above; format: cell-based, Escherichia coli; conditions: 15 mM furfural, AM1 mineral salts medium, 100 g/L xylose
Description: as §2, §3

XW136 = assay: Furfural tolerance in tube cultures; format: cell-based, Escherichia coli; conditions: strain XW136 (XW120 with adhE::fucO), AM1 medium, 50 g/L xylose, 48 h
Description: as §1

O=Cc1ccco1 [furfural]
MIC (XW055): 7.5 mM (≈ 721 µg/mL)
MIC (XW120): 15 mM (≈ 1440 µg/mL)
growth and fermentation (LY180): completely blocked
delay of growth (XW129): 24 h
extension of time required to complete fermentation (XW129): 6 h
furfural tolerance (XW136): 17.5 mM
